Earlier results, collected in patent US20220160890A1, “SURVIVAL-TARGETING CHIMERIC (SURTAC) MOLECULES” (Locki Therapeutics Limited, priority 2019, published 2022).

Experiments:
p53 [1] = target: T1, p53 (Homo sapiens, UniProt P04637)
T1 construct: various tumor cells lines expressing wild-type p53

p53-HDM-2 interaction = p53-HDM-2 interaction (Homo sapiens, UniProt P04637); conditions: in vitro and in vivo
[2] = system: tumor cells lines expressing wild-type p53; conditions: tumor cell lines expressing wild-type p53
p53 [3] = target: T1, p53; remark: listed apart in the source

T1 sequence (P04637 whole entry): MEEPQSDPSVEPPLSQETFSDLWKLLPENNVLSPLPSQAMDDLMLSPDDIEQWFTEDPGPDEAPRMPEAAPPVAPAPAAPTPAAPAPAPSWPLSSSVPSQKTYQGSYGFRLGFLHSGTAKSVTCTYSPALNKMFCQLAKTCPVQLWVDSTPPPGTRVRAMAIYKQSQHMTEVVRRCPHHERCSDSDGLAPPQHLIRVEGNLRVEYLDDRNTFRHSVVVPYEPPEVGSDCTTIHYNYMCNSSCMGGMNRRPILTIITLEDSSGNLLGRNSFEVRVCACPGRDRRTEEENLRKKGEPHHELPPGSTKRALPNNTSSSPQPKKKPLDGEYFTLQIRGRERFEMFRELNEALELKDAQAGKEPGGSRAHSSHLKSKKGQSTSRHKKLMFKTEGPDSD
p53-HDM-2 interaction, sequence (P04637 whole entry): as above

- binding to p53 (p53 [1]): binds to p53
- p53-HDM-2 interaction (p53-HDM-2 interaction): prevents p53-HDM-2 interaction
- accumulation of p53 in tumor cells (p53 [3]): induces its accumulation in tumor cells
Compound: OCc1ccc(-c2ccc(-c3ccc(CO)s3)o2)s1 [RITA, 2,5-bis(5-hydroxymethyl-2-thienyl)furan]
- apoptosis [2]: massive apoptosis
- expression of p53 target genes [2]: induced expression of p53 target genes
